According to patent US20170239289A1, “TREATMENT OF INFLAMMATION, RESPIRATORY TRACT INFECTIONS AND CYSTIC FIBROSIS” (Advanced Inhalation Therapies (AIT) Ltd., priority 2014, published 2017):

Experiments:
[1] = system: methicillin-sensitive S. aureus (MSSA); experiment: Example 1: microbial density in sputum (CFU) during NO inhalation; type: in vivo, Staphylococcus aureus; conditions: Patient 3 (CFSCH03)
Description: (§1) NO was administered via inhalation to nine clinically stable human subjects diagnosed with, or suffering from CF from two medical centers. Patients received three daily 30-minute treatments of 160 ppm NO with at least 3.5 hours between treatments, for 5 days per week over a two-weeks time period.
(§2) Preliminary efficacy measures included determination of microbial density in sputum and measurements of forced exhaled volume at 1 second (FEV1). Inflammation associated with C-reactive protein (CRP) levels was assessed as a secondary outcome measure. Other inflammation biomarkers, such as interleukins, were also monitored (data not shown).
(§3) Bacterial load was measured for exemplary, non-limiting selection of species that included, P. alcaligenes, methicillin-sensitive Staphylococcus aureus (MSSA), Achromobacter spp., A. fumigates, non-mucoid P. aeruginosa and mucoid P. aeruginosa.

[2] = system: S. aureus (MSSA); experiment: Example 4: bacterial and fungal sputum load; type: in vivo, Staphylococcus aureus
Description: (§4) In addition to their standard care, subjects were administered three 30-minute inhalations per day of 160 ppm NO (with O2/air) for 10 working days (i.e., 5 days on treatment, 2 days off treatment, 5 days on treatment, for a total of 10 treatment days and 30 inhalations).
(§5) Secondary Endpoints—Efficacy: • Comparison of FEV1 improvement before and after NO treatment Observational Endpoints: • To determine the reduction in bacterial and fungal sputum load during each week of NO treatment compared to bacterial sputum load before NO treatment • Assess the improvement of lung function indices during and after NO intermittent inhalation treatment as determined by spirometry (i.e., FVC, FEV1, FEV1/FVC, forced expiratory flow 25% to 75% (FEF 25-75)) • Evaluate C-reactive protein (CRP) levels over time • Number of subjects with study drug related bleeding at any time point
(§6) Results of the bacterial and fungal sputum load analysis were highly variable, and due to limitations of the sampling and testing technique, must be interpreted with caution. Microbiology results were recorded from Day 1 to end of follow-up, for all samples taken during the study. In order for NO therapy to be efficient, a minimal exposure of the microbial population to NO for the whole duration of the study is required. […] Thus, data was analyzed only for cultures with positive results on Day 1. Furthermore, samples from 2 subjects (SO-01 and SO-02) were not analyzed by the central laboratory. A summary of the bacterial and fungal sputum results at Day 1 and Day 9 is presented according to subject in Table 18.

[3] = system: P. alcaligenes; experiment: Example 1: microbial density in sputum (CFU) during NO inhalation; type: in vivo; conditions: Patient 1 (CFSCH01), by Day 9
Description: as §1, §2, §3

[4] = system: Achromobacter spp.; experiment: as above; type: in vivo; conditions: Patient 3 (CFSCH03)
Description: as §1, §2, §3

[5] = system: mucoid P. aeruginosa; experiment: as above; type: in vivo; conditions: Patient 4 (CFSCH04)
Description: as §1, §2, §3

[6] = system: A. fumigatus; experiment: as above; type: in vivo; conditions: Patient 3 (CFSCH03)
Description: as §1, §2, §3

[7] = system: Total P. aeruginosa; experiment: Example 4: bacterial and fungal sputum load; type: in vivo
Description: as §4, §5, §6

[8] = system: Non-Mucoid P. aeruginosa; experiment: Example 4: bacterial and fungal sputum load; type: in vivo
Description: as §4, §5, §6

[9] = system: Aspergillus fumigatus; experiment: Example 4: bacterial and fungal sputum load; type: in vivo
Description: as §4, §5, §6

[10] = system: Achromobacter spp.; experiment: Example 4: bacterial and fungal sputum load; type: in vivo
Description: as §4, §5, §6

[11] = system: mucoid P. aeruginosa; experiment: Example 4: bacterial and fungal sputum load; type: in vivo
Description: as §4, §5, §6

## [N]=O [NO, nitric oxide]
[1]
  MSSA CFU counts: elimination
[2]; Subject SC-03
  S. aureus (MSSA), % change from Day 1 to Day 9: −100.0%
[2]; Subject SC-03, Day 1
  S. aureus (MSSA) sputum load: 29.5 CFU/mL × 10^−4
[2]; Subject SC-03, Day 9
  S. aureus (MSSA) sputum load: 0 CFU/mL × 10^−4
[2]; Subject SO03
  S. aureus (MSSA), % change from Day 1 to Day 9: +27.6%
[2]; Subject SO03, Day 1
  S. aureus (MSSA) sputum load: 67.0 CFU/mL × 10^−4
[2]; Subject SO03, Day 9
  S. aureus (MSSA) sputum load: 85.5 CFU/mL × 10^−4
[3]
  decrease in P. alcaligenes CFUs: 2 log
[4]
  decrease in Achromobacter spp. CFU: 1 log
[5]
  decrease in mucoid P. aeruginosa counts: 2 log
[6]
  A. fumigatus CFU counts: elimination
[7]; Subject SC-01
  Total P. aeruginosa (central lab only), % change from Day 1 to Day 9: −3.7%
  Total P. aeruginosa (including Soroka lab), % change from Day 1 to Day 9: −3.7%
[7]; Subject SC-01, Day 1
  Total P. aeruginosa (central lab only) sputum load: 2,700 CFU/mL × 10^−4
  Total P. aeruginosa (including Soroka lab) sputum load: 2,700 CFU/mL × 10^−4
[7]; Subject SC-01, Day 9
  Total P. aeruginosa (central lab only) sputum load: 2,600 CFU/mL × 10^−4
  Total P. aeruginosa (including Soroka lab) sputum load: 2,600 CFU/mL × 10^−4
[7]; Subject SC-02
  Total P. aeruginosa (central lab only), % change from Day 1 to Day 9: +33.1%
  Total P. aeruginosa (including Soroka lab), % change from Day 1 to Day 9: +33.1%
[7]; Subject SC-02, Day 1
  Total P. aeruginosa (central lab only) sputum load: 496 CFU/mL × 10^−4
  Total P. aeruginosa (including Soroka lab) sputum load: 496 CFU/mL × 10^−4
[7]; Subject SC-02, Day 9
  Total P. aeruginosa (central lab only) sputum load: 660 CFU/mL × 10^−4
  Total P. aeruginosa (including Soroka lab) sputum load: 660 CFU/mL × 10^−4
[7]; Subject SC-04
  Total P. aeruginosa (central lab only), % change from Day 1 to Day 9: −57.9%
  Total P. aeruginosa (including Soroka lab), % change from Day 1 to Day 9: −57.9%
[7]; Subject SC-04, Day 1
  Total P. aeruginosa (central lab only) sputum load: 80,000 CFU/mL × 10^−4
  Total P. aeruginosa (including Soroka lab) sputum load: 80,000 CFU/mL × 10^−4
[7]; Subject SC-04, Day 9
  Total P. aeruginosa (central lab only) sputum load: 33,700 CFU/mL × 10^−4
  Total P. aeruginosa (including Soroka lab) sputum load: 33,700 CFU/mL × 10^−4
[7]; Subject SC-05
  Total P. aeruginosa (central lab only), % change from Day 1 to Day 9: −90.2%
  Total P. aeruginosa (including Soroka lab), % change from Day 1 to Day 9: −90.2%
[7]; Subject SC-05, Day 1
  Total P. aeruginosa (central lab only) sputum load: 32,100 CFU/mL × 10^−4
  Total P. aeruginosa (including Soroka lab) sputum load: 32,100 CFU/mL × 10^−4
[7]; Subject SC-05, Day 9
  Total P. aeruginosa (central lab only) sputum load: 3,140 CFU/mL × 10^−4
  Total P. aeruginosa (including Soroka lab) sputum load: 3,140 CFU/mL × 10^−4
[7]; Subject SO01
  Total P. aeruginosa (including Soroka lab), % change from Day 1 to Day 9: +611%
[7]; Subject SO01, Day 1
  Total P. aeruginosa (including Soroka lab) sputum load: 450 CFU/mL × 10^−4
[7]; Subject SO01, Day 9
  Total P. aeruginosa (including Soroka lab) sputum load: 3,200 CFU/mL × 10^−4
[7]; Subject SO02
  Total P. aeruginosa (including Soroka lab), % change from Day 1 to Day 9: +250%
[7]; Subject SO02, Day 1
  Total P. aeruginosa (including Soroka lab) sputum load: 100 CFU/mL × 10^−4
[7]; Subject SO02, Day 9
  Total P. aeruginosa (including Soroka lab) sputum load: 350 CFU/mL × 10^−4
[8]; Subject SC-02
  Non-Mucoid P. aeruginosa, % change from Day 1 to Day 9: +33.1%
[8]; Subject SC-02, Day 1
  Non-Mucoid P. aeruginosa sputum load: 496 CFU/mL × 10^−4
[8]; Subject SC-02, Day 9
  Non-Mucoid P. aeruginosa sputum load: 660 CFU/mL × 10^−4
[8]; Subject SC-04
  Non-Mucoid P. aeruginosa, % change from Day 1 to Day 9: −57.9%
[8]; Subject SC-04, Day 1
  Non-Mucoid P. aeruginosa sputum load: 80,000 CFU/mL × 10^−4
[8]; Subject SC-04, Day 9
  Non-Mucoid P. aeruginosa sputum load: 33,700 CFU/mL × 10^−4
[8]; Subject SC-05
  Non-Mucoid P. aeruginosa, % change from Day 1 to Day 9: −89.3%
[8]; Subject SC-05, Day 1
  Non-Mucoid P. aeruginosa sputum load: 29,200 CFU/mL × 10^−4
[8]; Subject SC-05, Day 9
  Non-Mucoid P. aeruginosa sputum load: 3,110 CFU/mL × 10^−4
[9]; Subject SC-03
  Aspergillus fumigatus, % change from Day 1 to Day 9: −100.0%
[9]; Subject SC-03, Day 1
  Aspergillus fumigatus sputum load: 2.00 CFU/mL × 10^−4
[9]; Subject SC-03, Day 9
  Aspergillus fumigatus sputum load: 0 CFU/mL × 10^−4
[10]; Subject SC-03
  Achromobacter spp., % change from Day 1 to Day 9: −94.3%
[10]; Subject SC-03, Day 1
  Achromobacter spp. sputum load: 44.1 CFU/mL × 10^−4
[10]; Subject SC-03, Day 9
  Achromobacter spp. sputum load: 2.50 CFU/mL × 10^−4
[11]; Subject SC-01
  Mucoid P. aeruginosa, % change from Day 1 to Day 9: −3.7%
[11]; Subject SC-01, Day 1
  Mucoid P. aeruginosa sputum load: 2,700 CFU/mL × 10^−4
[11]; Subject SC-01, Day 9
  Mucoid P. aeruginosa sputum load: 2,600 CFU/mL × 10^−4
[11]; Subject SC-05
  Mucoid P. aeruginosa, % change from Day 1 to Day 9: −99.9%
[11]; Subject SC-05, Day 1
  Mucoid P. aeruginosa sputum load: 29,000 CFU/mL × 10^−4
[11]; Subject SC-05, Day 9
  Mucoid P. aeruginosa sputum load: 30.0 CFU/mL × 10^−4
